Tests used:
[1] = molecular target: T1, MAT2A homodimer (Homo sapiens, UniProt P31153); experiment: Biochemical assay: inhibition of recombinant MAT2A homodimer (phosphate release, PiColorLock Gold); details: MAT2A IC50 score; read-out: Enzyme Inhibition
T1 construct: inferred from Ni sepharose purification and imidazole elution; made in house; host or cells: Sf9 insect cells, recombinant baculovirus (Bac to Bac, pFASTBAC1 vector)
Outline: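 Baculovirus/Sf9-expressed, Ni-purified MAT2A at 4 μg/mL in pH 8.0 Tris/KCl/MgCl2/EDTA/BSA buffer, preincubated with compound 60 min at 25 °C. Started with ATP and L-methionine substrate mix (500 μM and 40 μM, stock in mix), 60 min at 25 °C; released phosphate by PiColorLock Gold against a phosphate standard curve.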

[2] = test system: HCT116 MTAP +/+; experiment: Inhibition of cellular proliferation, 4 days, Cell Titer Glo, HCT116 MTAP+/+; assay type: cell-based; details: Homo sapiens, HCT-116, 96 h, IC50 score, read-out: 4 Day Relative Growth Inhibition (MTAP +/+)
Outline: (§1)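 Isogenic human colon carcinoma lines differing only in MTAP status, plated 24 h before dosing, then exposed for 4 days at 37 °C/5% CO2 to a 10-point 3-fold dilution series (0.2% DMSO final). Read-out is Cell Titer Glo ATP luminescence, blank-subtracted and normalised to in-plate DMSO control, plotted as % proliferation change versus log molar concentration.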

[3] = test system: SAM in HCT116 human colon carcinoma cell line with deleted MTAP gene; experiment: Cellular assay of target engagement (SAM): SAM level by LC-MS/MS after 72 hrs; assay type: cell-based; details: HCT-116, IC50 score, read-out: Cell 72 h SAM Inhibition (MTAP −/−)
Outline: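 MTAP-deleted HCT116 cells were seeded, then exposed 24 h later to a 10-point 3-fold compound dilution series for 72 h at 37 °C/5% CO2. They were lysed in cold 80% methanol/acetic acid containing d3-SAM internal standard. SAM was quantified by LC-MS/MS (MRM, m/z 399.2→250.1).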

[4] = test system: HCT116 MTAP-/-; experiment: Inhibition of cellular proliferation, 4 days, Cell Titer Glo, HCT116 MTAP-/-; assay type: cell-based; details: Homo sapiens, HCT-116, 96 h, IC50 score, read-out: 4 Day Relative Growth Inhibition (MTAP −/−)
Outline: as §1

T1 sequence (P31153 whole entry): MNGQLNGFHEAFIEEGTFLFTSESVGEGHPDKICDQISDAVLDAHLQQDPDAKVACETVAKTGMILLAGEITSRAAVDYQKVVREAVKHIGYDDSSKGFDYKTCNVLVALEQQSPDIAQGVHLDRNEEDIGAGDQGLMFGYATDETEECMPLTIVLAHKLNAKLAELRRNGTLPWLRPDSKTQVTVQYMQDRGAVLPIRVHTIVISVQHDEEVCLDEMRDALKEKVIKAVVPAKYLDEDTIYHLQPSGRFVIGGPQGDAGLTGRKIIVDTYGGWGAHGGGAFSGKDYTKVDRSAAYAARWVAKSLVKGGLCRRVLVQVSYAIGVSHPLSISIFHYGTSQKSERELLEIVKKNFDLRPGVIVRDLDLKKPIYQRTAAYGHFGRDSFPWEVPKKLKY

SMILES	IC50 [1]	IC50 [2]	IC50 [3]	IC50 [4]
CNc1ccc(-n2c(=O)c(-c3ccc4nn(C)cc4c3)nc3ccc(OCC(F)(F)F)nc32)cn1 [Example 348, 2-(2-methyl-2H-indazol-5-yl)-4-(6-(methylamino)pyridin-3-yl)-6-(2,2,2-trifluoroethoxy)pyrido[2,3-b]pyrazin-3(4H)-one]	< 100 nM	≥ 1000 nM	< 100 nM	< 100 nM
COc1ccc(-n2c(=O)c(-c3ccc4nc(N)n(C)c4c3)nc3ccc(OCC(F)(F)F)nc32)cc1 [Example 351, 2-(2-amino-1-methyl-1H-benzo[d]imidazol-6-yl)-4-(4-methoxyphenyl)-6-(2,2,2-trifluoroethoxy)pyrido[2,3-b]pyrazin-3(4H)-one]	< 100 nM	≥ 1000 nM	< 100 nM	< 100 nM
COc1ccc(-n2c(=O)c(-c3ccc4nn(C)cc4c3)nc3c(N)cc(OCC(F)(F)F)nc32)cc1 [Example 352, 8-amino-4-(4-methoxyphenyl)-2-(2-methyl-2H-indazol-5-yl)-6-(2,2,2-trifluoroethoxy)pyrido[2,3-b]pyrazin-3(4H)-one]	< 100 nM	100 to 1000 nM	< 100 nM	< 100 nM
COc1ccc(-n2c(=O)c(-c3ccc4nc(N)n(C)c4c3)cc3ccc(OCC(F)(F)F)nc32)cc1 [Example 353, 3-(2-amino-1-methyl-1H-benzo[d]imidazol-6-yl)-1-(4-methoxyphenyl)-7-(2,2,2-trifluoroethoxy)-1,8-naphthyridin-2(1H)-one]	< 100 nM	≥ 1000 nM	< 100 nM	< 100 nM

The next lines start with the values.

IC50 [1]	IC50 [2]	IC50 [3]	IC50 [4]	SMILES
< 100 nM	100 to 1000 nM	< 100 nM	< 100 nM	[2H]C([2H])([2H])Oc1ccc(-n2c(=O)c(-c3ccc4nn(C)cc4c3)cc3ncc(OCC)nc32)cc1 [Example 342]
< 100 nM	≥ 1000 nM	< 100 nM	< 100 nM	COc1ccc(-n2c(=O)c(-c3ccc4nn(C)cc4c3)cc3ncc(OCC(F)(F)F)nc32)cc1 [Example 343, 5-(4-methoxyphenyl)-7-(2-methyl-2H-indazol-5-yl)-3-(2,2,2-trifluoroethoxy)pyrido[2,3-b]pyrazin-6(5H)-one]
< 100 nM	≥ 1000 nM	< 100 nM	< 100 nM	[2H]C([2H])([2H])Oc1ccc(-n2c(=O)c(-c3ccc4nn(C)cc4c3)cc3ncc(OCC(F)F)nc32)cc1 [Example 344]
< 100 nM	≥ 1000 nM	< 100 nM	100 to 1000 nM	[2H]C([2H])([2H])Oc1ccc(-n2c(=O)c(-c3ccc4nn(C)cc4c3)cc3ncc(OCC(F)(F)F)nc32)cc1 [Example 345]
< 100 nM	≥ 1000 nM	< 100 nM	< 100 nM	Cn1cc2cc(-c3nc4ccc(OCC(F)(F)F)nc4n(-c4ccc(Br)cc4)c3=O)ccc2n1 [Example 346, 4-(4-bromophenyl)-2-(2-methyl-2H-indazol-5-yl)-6-(2,2,2-trifluoroethoxy)pyrido[2,3-b]pyrazin-3(4H)-one]
< 100 nM	≥ 1000 nM	< 100 nM	100 to 1000 nM	COc1ccc(-n2c(=O)c(-c3ccc4nn(CCN)cc4c3)nc3ccc(OCC(F)(F)F)nc32)cc1 [Example 347, 2-(2-(2-aminoethyl)-2H-indazol-5-yl)-4-(4-methoxyphenyl)-6-(2,2,2-trifluoroethoxy)pyrido[2,3-b]pyrazin-3(4H)-one]
